From patent US6509003B2, “Reagents for the determination of cerebral regional acetylcholinesterase activity” (Daiichi Pure Chemicals Co., Ltd., priority 1997, dated 2003)
Where two headings read alike, the source gives them in different places.

Experiments:
AchE [1] = target: T1, AchE (Rattus norvegicus, UniProt P37136); assay: hydrolysis of 14C-labeled compound in 20% rat brain cortex homogenate, radio TLC, with/without BW284c51; conditions: for specificity for AchE in hydrolysis reaction: 14C-labeled compound, from inhibition test with BW284c51
Method: Rat brain cortex was processed into a 20% (w/v) homogenate by use of 0.9% NaCl-10 mM phosphate buffer (pH 7.4).

central AchE [2] = target: T2, central AchE (Rattus norvegicus, UniProt P37136); assay: radioactivity distribution in the rat brain by dissection method after intravenous administration; type: in vivo; set-up: from tissue; host or cells: brain of living male rats (in vivo); conditions: male wistar rats, i.v.
T2 sequence (P37136 32-614): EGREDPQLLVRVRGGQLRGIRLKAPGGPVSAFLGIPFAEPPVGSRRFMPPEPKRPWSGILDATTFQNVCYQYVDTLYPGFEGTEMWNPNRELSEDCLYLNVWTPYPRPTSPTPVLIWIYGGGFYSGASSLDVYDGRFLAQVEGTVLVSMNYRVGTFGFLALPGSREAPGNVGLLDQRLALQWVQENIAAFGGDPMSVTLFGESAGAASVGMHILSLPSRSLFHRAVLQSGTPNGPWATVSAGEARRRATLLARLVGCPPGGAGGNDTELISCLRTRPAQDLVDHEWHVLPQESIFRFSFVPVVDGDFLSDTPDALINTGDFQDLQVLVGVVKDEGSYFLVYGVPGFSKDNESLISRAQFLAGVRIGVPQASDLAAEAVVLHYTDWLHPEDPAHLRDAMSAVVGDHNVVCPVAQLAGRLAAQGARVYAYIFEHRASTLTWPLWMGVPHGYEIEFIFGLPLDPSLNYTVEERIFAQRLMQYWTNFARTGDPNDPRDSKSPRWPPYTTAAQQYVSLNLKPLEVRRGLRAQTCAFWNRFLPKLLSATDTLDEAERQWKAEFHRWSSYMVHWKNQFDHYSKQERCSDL
Method: After a geometrical isomer (50b) of compound No. 50 obtained in Example 8 (1) had been intravenously administered to groups of male wistar rats, radioactivity distribution in the rat brain was assayed by dissection method.

AchE [3] = target: T1, AchE; type: biochemical; set-up: Cerebral cortical tissues were obtained from rats, weighed and homogenized; from tissue; host or cells: rat cerebral cortex homogenate
Method: Cerebral cortical tissues were obtained from rats, weighed and homogenized (90 mg tissue/ml) in 0.1 M phosphate buffer, pH7.4. […]

central AchE [4] = target: T2, central AchE; assay: radioactivity distribution in the rat brain by autoradiography after intravenous administration; type: in vivo; set-up: from tissue; host or cells: brain of living male rats (in vivo); conditions: male white rat, i.v.; for migration to the brain: 14C-labeled, autoradiography
central AchE [5] = target: T2, central AchE; assay: radioactivity distribution in the rat brain by quantitative autoradiography after intravenous administration; conditions: 14C-labeled 13b, male white rat, i.v.
[6] = fifteen minutes or more after administration
[7] = immediately after administration
[8] = thirty minutes after administration
[9] = thirty minutes or more after administration

`CC(=O)OC1CCN(C)CC1C(O)CC/C=C/I` (single isomer, unassigned) [13a] was tested, and the “specificity for AchE in hydrolysis reaction” value (AchE [1]; rat brain cortex homogenate) was 80.4%.

In the case of `COCOC(CC/C=C/[123I])C1CN(C)CCC1OC(C)=O` (single isomer, unassigned) [50b], the “accumulation of radioactivity, cerebellum” value (shortened to “accumulation … cerebellum”) (central AchE [2]; [6]) is reported as “accumulation of radioactivity was low”, the “accumulation of radioactivity, striatum” value (central AchE [2]; [6]) is reported as “high accumulation of radioactivity” and the “radioactivity distribution, brain cortex” value (central AchE [2]; [7]) is reported as “high”. For the same compound, the “radioactivity distribution, striatum” value (central AchE [2]; [7]) was “low” and the “specificity for AchE” value (AchE [3]; 123I-labeled compound, rat cerebral cortical homogenate, 37°C, from inhibition by BW284c51) was 88.6%.

In the case of `CC(=O)OC1CN([14CH3])CCC1C(O)/C=C/I` (stereo not shown) [compound No. 47, N-^14C-methyl-3-acetoxy-4-(1-hydroxy-3-iodo-2-propenyl)piperidine], the “migration to the brain” value (central AchE [4]) is reported as “commonly migrated to the brain”, the “radioactivity distribution, brain cortex” value (central AchE [4]; 5 minutes after administration) is reported as “high” and the “radioactivity distribution, cerebellum” value (central AchE [4]; 5 minutes after administration) is reported as “low”. The “radioactivity distribution, corpus striatum” value (central AchE [4]; 5 minutes after administration) was “somewhat high”, the “accumulation … cerebellum” value (central AchE [4]; [8]) was “low accumulation of radioactivity” and the “accumulation of radioactivity, corpus striatum” value (central AchE [4]; [8]) was “high accumulation of radioactivity”.

`C=CC[N+](C)(C)c1ccc(CCC(=O)CCc2ccc([N+](C)(C)CC=C)cc2)cc1.[Br-].[Br-]` [BW284c51, reference compound] was tested, and the “hydrolysis on addition of BW284c51” value (AchE [1]; hydrolysis of 14C-labeled compound No. 13 in rat brain cortex homogenate) was “considerably inhibited” and the “hydrolysis on addition of BW284c51” value (AchE [3]; hydrolysis of 123I-labeled 50b in rat cerebral cortical homogenate) was “considerably inhibited”.

With `CC(=O)OC1CCN(C)CC1C(O)CC/C=C/I` (single isomer, unassigned) [13b] the “specificity for AchE in hydrolysis reaction” value (AchE [1]; rat brain cortex homogenate) was 91.8%, the “reactivity and specificity for AchE (in words)” value (AchE [1]; rat brain cortex homogenate) was “excellent reactivity and specificity for AchE” and the half-life (AchE [1]; rat, 20% (w/v) brain cortex homogenate, pH 7.4, half-life of hydrolysis, 14C-labeled (N-methyl) compound, rat brain cortex homogenate, 37°C) was roughly 5 min. For the same compound, the “radioactivity distribution, brain cortex” value (central AchE [5]; [7]) was “high”, the “radioactivity distribution, corpus striatum” value (central AchE [5]; [7]) was “low” and the “accumulation … cerebellum” value (central AchE [5]; [9]) was “low accumulation of radioactivity”. For the same compound, the “accumulation of radioactivity, striatum” value (central AchE [5]; [9]) was “high accumulation of radioactivity”.

For `O.[14CH3]N1CCC(C(O)/C=C/I)C(O)C1` (stereo not drawn) [compound No. 46, N-^14C-methyl-3-hydroxy-4-(l-hydroxy-3-iodo-2-propenyl)piperidine], the “migration to the brain” value (central AchE [4]) was “hardly migrated to the brain”.
